Series [1] has as its system MOLM-13. As to the kind of experiment: Antiproliferative activity in human MOLM-13 AML cells assessed as reduction in cell viability incubated for 72 hrs by CellTiter-Glo assay. The conditions noted are these: MOLM-13, 72 h. In general terms: Cellular ATP, detected with luciferase, serves as a proxy for viable cell number.
Series [2] in a line: Metabolic stability in mouse liver microsome assessed as half life. The series is classed as ADME. The following applies: liver microsomes. Background: Liver microsomes are vesicles of endoplasmic reticulum, rich in cytochrome P450 enzymes.
The nature of series [3]: Metabolic stability in human liver microsome assessed as half life. It is filed as ADME. The conditions noted are these: liver microsomes.
Series [4] can be described thus: Intrinsic clearance in human liver microsomes. It is filed as ADME, Microsome. The conditions noted are these: read-out: CLH.
Series [5] concerns the target P-gp (ABCB1) (Homo sapiens, UniProt P08183). Kind of series: Substrate activity at P-gp (unknown origin) assessed as efflux ratio. The series is classed as ADME. The conditions noted are these: not told.
A short description of series [6]: Permeability of compound in MDCK cells. The series is classed as ADME, cell-based, Canis lupus familiaris. The conditions noted are these: dog, read-out: permeability.
In series [7] the target is Dihydroorotate dehydrogenase (quinone), mitochondrial (Homo sapiens, UniProt Q02127). Kind of series: Inhibition of human DHODH in MOLM-13 AML cells. The series is classed as cell-based.
Dihydroorotate dehydrogenase (quinone), mitochondrial, sequence (Q02127 whole entry): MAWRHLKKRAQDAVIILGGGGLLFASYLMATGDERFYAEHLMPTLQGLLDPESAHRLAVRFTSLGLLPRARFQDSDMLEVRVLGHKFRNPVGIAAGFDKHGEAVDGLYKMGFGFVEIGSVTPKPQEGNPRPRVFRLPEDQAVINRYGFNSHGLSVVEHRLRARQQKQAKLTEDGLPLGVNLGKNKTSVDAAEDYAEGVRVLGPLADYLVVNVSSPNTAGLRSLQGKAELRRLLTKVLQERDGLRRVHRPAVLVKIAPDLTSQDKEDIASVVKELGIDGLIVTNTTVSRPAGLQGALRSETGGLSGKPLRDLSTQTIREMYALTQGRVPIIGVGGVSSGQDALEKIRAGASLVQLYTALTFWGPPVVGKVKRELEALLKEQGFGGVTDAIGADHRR
A short description of series [8]: Microsomal stability in mouse assessed as half-life. The conditions noted are these: microsomes. The series is classed as ADME, Microsome.
The nature of series [9]: Microsomal stability in human assessed as half-life. The conditions noted are these: microsomes. The series is classed as ADME, Microsome.
A short description of series [10]: Oral bioavailability in C57 mouse at 10 mg/kg. The conditions noted are these: in vivo. The series is classed as ADME, organism-based.
The nature of series [11]: Plasma protein binding in mouse assessed as free fraction. The conditions noted are these: read-out: PPB. It is filed as ADME, cell-free.
Series [12] in a line: Half-life in C57 mouse at 10 mg/kg, po or 2 mg/kg, iv. The conditions noted are these: in vivo. The series is classed as ADME, organism-based.
Series [13] is described as follows: Clearance in iv dosed mouse assessed as hepatic blood flow. The series is classed as ADME, organism-based. The conditions noted are these: in vivo.
Series [14] is described as follows: Plasma protein binding in human assessed as free fraction. It is filed as ADME, cell-free. The following applies: read-out: PPB.
Series [15] can be described thus: Volume of distribution at steady state in C57 mouse at 10 mg/kg, po or 2 mg/kg, iv. The conditions noted are these: in vivo. It is filed as ADME, organism-based.

P-gp (ABCB1), sequence (P08183 whole entry): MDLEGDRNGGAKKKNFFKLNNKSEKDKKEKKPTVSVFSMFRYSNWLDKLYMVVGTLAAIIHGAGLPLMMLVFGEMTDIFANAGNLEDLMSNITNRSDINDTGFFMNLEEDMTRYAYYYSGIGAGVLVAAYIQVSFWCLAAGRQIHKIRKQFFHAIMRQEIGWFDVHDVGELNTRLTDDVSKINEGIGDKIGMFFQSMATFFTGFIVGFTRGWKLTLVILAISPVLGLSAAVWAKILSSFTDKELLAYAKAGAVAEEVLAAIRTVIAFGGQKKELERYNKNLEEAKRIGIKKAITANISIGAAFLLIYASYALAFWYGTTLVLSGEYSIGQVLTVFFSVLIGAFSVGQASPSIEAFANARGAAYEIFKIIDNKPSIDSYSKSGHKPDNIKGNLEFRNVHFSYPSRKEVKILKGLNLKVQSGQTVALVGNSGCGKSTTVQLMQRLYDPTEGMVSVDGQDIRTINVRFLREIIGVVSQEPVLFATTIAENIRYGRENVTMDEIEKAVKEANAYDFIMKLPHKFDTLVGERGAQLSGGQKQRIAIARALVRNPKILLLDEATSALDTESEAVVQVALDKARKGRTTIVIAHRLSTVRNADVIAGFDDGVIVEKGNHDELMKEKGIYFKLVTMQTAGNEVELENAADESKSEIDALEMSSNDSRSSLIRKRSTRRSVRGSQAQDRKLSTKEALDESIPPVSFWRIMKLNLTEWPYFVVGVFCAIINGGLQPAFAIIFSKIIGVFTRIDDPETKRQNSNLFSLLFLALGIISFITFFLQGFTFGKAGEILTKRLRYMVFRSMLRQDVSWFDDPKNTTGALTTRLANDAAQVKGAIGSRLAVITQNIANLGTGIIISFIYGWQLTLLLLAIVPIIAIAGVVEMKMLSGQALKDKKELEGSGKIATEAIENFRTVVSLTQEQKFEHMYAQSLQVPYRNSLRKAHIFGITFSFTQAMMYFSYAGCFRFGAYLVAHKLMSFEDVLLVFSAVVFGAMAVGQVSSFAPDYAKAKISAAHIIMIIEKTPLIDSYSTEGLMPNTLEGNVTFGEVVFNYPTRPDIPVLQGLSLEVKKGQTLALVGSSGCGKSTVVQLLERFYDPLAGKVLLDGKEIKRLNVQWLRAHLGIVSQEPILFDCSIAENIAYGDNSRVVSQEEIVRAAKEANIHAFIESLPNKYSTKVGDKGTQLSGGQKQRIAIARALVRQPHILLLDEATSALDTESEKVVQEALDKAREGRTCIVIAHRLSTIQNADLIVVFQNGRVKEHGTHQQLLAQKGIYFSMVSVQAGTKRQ

Broadly, the IC50 is the concentration at which inhibition is half-maximal. Consider `C[C@H](Oc1cc(NC(=O)N2CCCC2)c(F)cc1C(=O)Nc1c(F)cccc1Cl)C(F)(F)F`, for which the IC50 in series [1] came out at 1.3 nM.
By half-life is commonly meant how long it takes for the measured level to halve. `C[C@H](Oc1cc(NC(=O)N2CCCC2CO)c(F)cc1C(=O)Nc1c(F)cccc1Cl)C(F)(F)F` (mixture of isomers): the half-life in series [2] amounted to 45 min; in series [3], 56 min. The IC50 in series [1] came to 1.5 nM.
Take `CCC(CCO)C(=O)Nc1cc(O[C@@H](C)C(F)(F)F)c(C(=O)Nc2c(F)cccc2Cl)cc1F` (stereo partly specified): the concentration for half-maximal inhibition (IC50) in series [1] stood at 206 nM.
On the same count and under the same terms, the value for `CCNC(=O)Nc1cc(O[C@@H](C)C(F)(F)F)c(C(=O)Nc2c(F)cccc2Cl)cc1F` was 53 nM.
For the compound `C[C@H](Oc1cc(NC(=O)N(C)C)c(F)cc1C(=O)Nc1c(F)cccc1Cl)C(F)(F)F`, the half-life in [2] was under 4 min; in [3] it was 22 min. For the same compound, in series [1], the 50% inhibitory concentration (IC50) worked out at 2 nM.
For the compound `CCN(CC)C(=O)Nc1cc(O[C@@H](C)C(F)(F)F)c(C(=O)Nc2c(F)cccc2Cl)cc1F`, the half-life in series [2] came out at 12 min; in series [3] it was 26 min. For the same compound, the IC50 in series [1] worked out at 0.63 nM.
A word on the efflux ratio: it is a quotient of directional permeabilities that is used to spot active efflux. Turning to `CCn1c(CO)nn(-c2nc(O[C@@H](C)C(F)(F)F)c(C(=O)Nc3c(C)cnc(OC)c3Cl)cc2F)c1=O`, the CLint scaled in series [4] was under 7.7 mL/min/kg. Moreover, the efflux ratio in [5] was over 30. Further, the Papp in series [6] came out at 27 ×10⁻⁶ cm/s.
In the case of `C[C@H](Oc1cc(NC(=O)C2CC2)c(F)cc1C(=O)Nc1c(F)cccc1Cl)C(F)(F)F`, the IC50 in series [1] was 55 nM.
In the case of `C[C@H](Oc1cc(NC(=O)N2CCC2CO)c(F)cc1C(=O)Nc1c(F)cccc1Cl)C(F)(F)F` (mixture of isomers), the values for the half-life in series [2] and in series [3] were 15 min and 28 min, respectively. Also, the IC50 in series [1] was 1.6 nM.
Take `C[C@H](Oc1cc(NC(=O)N2CC(CO)C2)c(F)cc1C(=O)Nc1c(F)cccc1Cl)C(F)(F)F`: the half-life came to 178 min in [2] and 142 min in [3]. Besides, in [1], the IC50 is 430 nM.
Take `CCn1c(CO)nn(-c2nc(O[C@@H](C)C(F)(F)F)c(C(=O)Nc3c(F)cccc3Cl)cc2F)c1=O`: the efflux ratio in series [5] was over 30. The compound also had an IC50 in series [7] of 0.24 nM.
`CCC(CC)C(=O)Nc1cc(O[C@@H](C)C(F)(F)F)c(C(=O)Nc2c(F)cccc2Cl)cc1F`: the IC50 in series [1] turned out to be 53 nM.
On to `COCC1CCCN1C(=O)Nc1cc(O[C@@H](C)C(F)(F)F)c(C(=O)Nc2c(F)cccc2Cl)cc1F` (stereo partly specified), for which the IC50 in [1] is 11 nM.
In the case of `CCN(C)C(=O)Nc1cc(O[C@@H](C)C(F)(F)F)c(C(=O)Nc2c(F)cccc2Cl)cc1F`, the half-life in series [2] is under 4 min; in series [3] it was 21 min. In addition, in [1], the IC50 stood at 0.82 nM.
`CCCC(=O)Nc1cc(O[C@@H](C)C(F)(F)F)c(C(=O)Nc2c(F)cccc2Cl)cc1F`: the half-life is under 4 min in [8] and 31 min in series [9]. Besides, the IC50 in series [1] is 46 nM.
By bioavailability is commonly meant dose-corrected exposure relative to a reference, in per cent. Regarding `C[C@H](Oc1cc(NC(=O)N2C(=O)CCC2CO)c(F)cc1C(=O)Nc1c(F)cccc1Cl)C(F)(F)F` (mixture of isomers), the half-life is 106 min in series [2], 62 min in series [3] and 180 min in series [12]. Also, the bioavailability in series [10] is over 100%. Further, the fraction unbound was 0.007 in series [11] and 0.012 in series [14]. Moreover, in series [1], the IC50 is 0.92 nM. Besides, in series [13], the QH was ~ 20%. Besides, the Vdss in [15] came to 3.6 L/kg.
With `C[C@H](Oc1cc(NC(=O)N2CCC(F)(F)C2)c(F)cc1C(=O)Nc1c(F)cccc1Cl)C(F)(F)F`, in [1], the IC50 amounted to 4.3 nM.
In the case of `CC/C(=C\CO)C(=O)Nc1cc(O[C@@H](C)C(F)(F)F)c(C(=O)Nc2c(F)cccc2Cl)cc1F`, the IC50 in [1] was 64 nM.
On to `CCN(C(=O)Nc1cc(O[C@@H](C)C(F)(F)F)c(C(=O)Nc2c(F)cccc2Cl)cc1F)C1CC1`, for which the half-life in series [2] worked out at 20 min; in [3], 50 min. Besides, in series [1], the IC50 amounted to 1 nM.
On to `CCC(=O)Nc1cc(O[C@@H](C)C(F)(F)F)c(C(=O)Nc2c(F)cccc2Cl)cc1F`, for which the IC50 in series [1] is 35 nM.
For the compound `CCN(CC)C(=O)N(C)c1cc(O[C@@H](C)C(F)(F)F)c(C(=O)Nc2c(F)cccc2Cl)cc1F`, the half-life in series [2] and in [3] was under 4 min each time. In addition, the IC50 in series [1] stood at 25 nM.
`CC(=O)Nc1cc(O[C@@H](C)C(F)(F)F)c(C(=O)Nc2c(F)cccc2Cl)cc1F`: the IC50 in series [1] was 370 nM.

For the origin of these results see ChEMBL document CHEMBL5344472, “Discovery of Alternative Binding Poses through Fragment-Based Identification of DHODH Inhibitors” (ACS Med Chem Lett, 2024).
